According to PMC3871175 (Nature Communications, 2012):

Target: ABCA4 (Bos taurus, UniProt F1MWM0)
Type: biochemical

Chain of ABCA4 (F1MWM0 whole entry): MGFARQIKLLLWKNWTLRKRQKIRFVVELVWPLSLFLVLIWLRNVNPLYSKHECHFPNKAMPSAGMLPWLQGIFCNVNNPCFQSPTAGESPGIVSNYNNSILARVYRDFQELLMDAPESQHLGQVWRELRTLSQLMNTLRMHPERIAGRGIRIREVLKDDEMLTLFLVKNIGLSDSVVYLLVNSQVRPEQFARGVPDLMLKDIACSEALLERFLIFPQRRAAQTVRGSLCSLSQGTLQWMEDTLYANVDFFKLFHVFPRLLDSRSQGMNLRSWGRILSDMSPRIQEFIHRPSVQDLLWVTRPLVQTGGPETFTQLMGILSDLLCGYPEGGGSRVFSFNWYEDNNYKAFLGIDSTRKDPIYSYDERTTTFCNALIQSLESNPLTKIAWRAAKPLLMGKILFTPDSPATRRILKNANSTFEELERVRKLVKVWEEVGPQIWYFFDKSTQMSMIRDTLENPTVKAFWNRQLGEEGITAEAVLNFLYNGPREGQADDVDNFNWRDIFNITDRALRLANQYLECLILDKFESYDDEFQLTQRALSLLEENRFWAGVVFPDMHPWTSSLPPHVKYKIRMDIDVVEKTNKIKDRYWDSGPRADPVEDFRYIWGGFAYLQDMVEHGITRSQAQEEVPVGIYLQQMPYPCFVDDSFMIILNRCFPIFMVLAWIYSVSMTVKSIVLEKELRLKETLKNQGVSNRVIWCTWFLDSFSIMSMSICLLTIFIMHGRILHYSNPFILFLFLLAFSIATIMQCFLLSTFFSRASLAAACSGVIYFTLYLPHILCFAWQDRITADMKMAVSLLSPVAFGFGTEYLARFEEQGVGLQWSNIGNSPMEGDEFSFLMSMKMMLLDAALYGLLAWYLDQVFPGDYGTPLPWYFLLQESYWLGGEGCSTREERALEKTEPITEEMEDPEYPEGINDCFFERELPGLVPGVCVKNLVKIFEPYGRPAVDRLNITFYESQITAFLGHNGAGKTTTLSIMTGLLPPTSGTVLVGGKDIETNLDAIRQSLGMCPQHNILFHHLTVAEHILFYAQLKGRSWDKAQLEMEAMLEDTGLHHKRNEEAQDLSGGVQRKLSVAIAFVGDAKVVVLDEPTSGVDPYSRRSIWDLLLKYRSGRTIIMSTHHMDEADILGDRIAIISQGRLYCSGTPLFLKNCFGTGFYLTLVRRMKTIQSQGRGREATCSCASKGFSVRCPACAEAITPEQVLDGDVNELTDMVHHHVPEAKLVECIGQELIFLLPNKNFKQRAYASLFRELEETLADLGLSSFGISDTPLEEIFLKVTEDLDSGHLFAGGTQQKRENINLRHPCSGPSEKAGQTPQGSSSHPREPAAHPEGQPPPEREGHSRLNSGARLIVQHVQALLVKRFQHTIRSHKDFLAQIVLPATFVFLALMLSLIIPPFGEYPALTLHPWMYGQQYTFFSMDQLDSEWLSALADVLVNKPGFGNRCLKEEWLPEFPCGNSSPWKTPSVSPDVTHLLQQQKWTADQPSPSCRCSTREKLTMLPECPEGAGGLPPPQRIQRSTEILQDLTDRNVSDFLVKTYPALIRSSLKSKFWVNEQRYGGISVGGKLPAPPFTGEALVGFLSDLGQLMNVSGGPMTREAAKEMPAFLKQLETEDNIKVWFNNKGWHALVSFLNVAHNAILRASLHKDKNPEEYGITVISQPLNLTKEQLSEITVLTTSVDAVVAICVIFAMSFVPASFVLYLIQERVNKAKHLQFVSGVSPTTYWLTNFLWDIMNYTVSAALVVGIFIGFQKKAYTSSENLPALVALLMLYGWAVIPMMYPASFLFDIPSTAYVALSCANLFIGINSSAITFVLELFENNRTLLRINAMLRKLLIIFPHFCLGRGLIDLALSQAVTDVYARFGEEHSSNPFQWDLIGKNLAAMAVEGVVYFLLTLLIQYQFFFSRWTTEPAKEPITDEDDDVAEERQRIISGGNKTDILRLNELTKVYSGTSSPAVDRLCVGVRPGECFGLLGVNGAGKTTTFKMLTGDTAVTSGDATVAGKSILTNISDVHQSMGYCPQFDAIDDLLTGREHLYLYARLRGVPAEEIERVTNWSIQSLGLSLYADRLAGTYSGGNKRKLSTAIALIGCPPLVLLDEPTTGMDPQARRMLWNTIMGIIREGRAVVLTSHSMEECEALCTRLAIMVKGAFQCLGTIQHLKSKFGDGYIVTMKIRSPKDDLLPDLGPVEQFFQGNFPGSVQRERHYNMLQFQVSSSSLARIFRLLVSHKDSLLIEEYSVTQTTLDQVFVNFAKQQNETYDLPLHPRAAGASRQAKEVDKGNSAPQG

IC50: 9 µM
Substance: N-retinyl-PE
